The supplement of paper PMC10307832

Legend:
Assay in all cases: relative viability (nuclei count vs DMSO), 5 days (fraction); higher = more cells survive
[1] = compound: C(C(=O)C(=O)O)Br [Bromopyruvate] + C[C@@H](Oc1cc(-c2cnn(C3CCNCC3)c2)cnc1N)c1c(Cl)ccc(F)c1Cl [Crizotinib] (partner 1 µM)
Method in brief: (§1)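 Relative viability is defined as nuclei in treated wells over nuclei in vehicle wells. Duplicate plates were run and medians reported. Lung cancer cell lines in 1536-well plates were dosed by pin tool one day after seeding, with one drug or with a fixed anchor-drug dose plus five library-drug doses (not always all listed) in √10 steps, and nuclei were counted after 5 days.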

[2] = compound: C(C(=O)C(=O)O)Br [Bromopyruvate] + Nc1ncn([C@H]2C[C@H](O)[C@@H](CO)O2)c(=O)n1 [Decitabine] (partner 2 µM)
Method in brief: as §1

[3] = compound: CC(O)(CS(=O)(=O)c1ccc(F)cc1)C(=O)Nc1ccc(C#N)c(C(F)(F)F)c1 [Bicalutamide] + Cc1cc(Nc2cc(N3CCN(C)CC3)nc(Sc3ccc(NC(=O)C4CC4)cc3)n2)n[nH]1 [Tozasertib] (partner 0.1 µM)
Method in brief: as §1

[4] = compound: CC(O)(CS(=O)(=O)c1ccc(F)cc1)C(=O)Nc1ccc(C#N)c(C(F)(F)F)c1 [Bicalutamide] + O=C(CCCCCCC(=O)Nc1ccccc1)NO [Vorinostat] (partner 1 µM)
Method in brief: as §1

Cell Line	relative viability ([1]; first compound 1 µM)	relative viability ([1]; first compound 3.162 µM)	relative viability ([1]; first compound 31.62 µM)	relative viability ([1]; first compound 100 µM)	relative viability ([2]; first compound 1 µM)	relative viability ([2]; first compound 100 µM)	relative viability ([3]; first compound 0.08 µM)	relative viability ([3]; first compound 0.253 µM)	relative viability ([3]; first compound 0.8 µM)	relative viability ([3]; first compound 2.53 µM)	relative viability ([4]; first compound 0.08 µM)	relative viability ([4]; first compound 0.253 µM)	relative viability ([4]; first compound 0.8 µM)	relative viability ([4]; first compound 2.53 µM)	relative viability ([2]; first compound 3.162 µM)	relative viability ([2]; first compound 10 µM)	relative viability ([2]; first compound 31.62 µM)	relative viability ([1]; first compound 10 µM)
ABC-1	1.47	1.13	1.05	0.636	0.888	0.885	0.179	0.168	0.17	0.167	1.06	0.805	1.5	0.947	–	–	–	–
SW 900	–	–	–	–	0.451	0.449	0.651	0.556	0.592	0.542	0.601	0.281	0.394	0.398	0.485	0.462	0.419	–
PC-14	0.991	0.868	0.966	0.997	0.226	0.201	0.643	0.616	0.744	0.588	0.854	0.605	0.732	0.574	0.229	0.204	0.262	0.826
NCI-H1648	–	–	–	–	0.465	0.491	–	0.496	0.602	0.358	–	–	0.698	0.425	0.572	0.454	0.511	–
A549	0.731	0.806	0.754	0.736	0.225	0.266	–	–	–	–	–	–	–	–	0.271	0.36	0.308	0.858
A-427	0.878	0.873	0.741	0.793	0.581	0.568	0.232	0.183	0.209	0.165	0.883	0.9	0.866	0.842	0.567	0.612	0.631	0.82
NCI-H1792	1.11	1.03	0.878	0.984	0.57	0.555	–	–	–	–	–	–	–	–	0.614	0.45	0.498	1.09
LCLC-97TM1	–	–	0.427	0.186	0.246	0.16	0.212	0.186	0.296	0.231	0.728	0.644	0.972	0.54	0.226	0.263	0.243	0.377
NCI-H1703	0.736	0.946	0.862	0.75	–	–	–	–	–	–	–	–	–	–	–	–	–	0.589
LCLC-103H	1.02	1.06	1.14	1.2	0.757	0.825	0.546	0.412	0.468	0.411	0.791	0.679	0.914	0.744	0.764	0.797	0.77	1.05
RERF-LC-KJ	0.771	0.82	0.813	0.891	0.738	0.72	0.48	0.521	0.494	0.338	0.779	0.606	0.864	0.564	0.745	0.791	0.794	0.855
BEN	0.875	0.935	0.753	1.01	0.726	0.674	0.475	0.533	0.527	0.487	0.537	0.719	0.588	0.617	0.685	0.773	0.617	0.99
NCI-H1666	0.993	0.907	1.18	0.857	0.679	0.705	0.6	0.562	0.625	0.597	0.921	1.05	1.14	0.981	0.738	0.835	0.66	0.963
LC-2-ad	0.218	0.47	0.52	0.469	0.856	0.695	0.465	0.429	0.552	0.505	0.767	0.679	0.67	0.556	0.726	0.797	0.872	0.458
SW 1573	1.02	0.815	0.803	0.57	0.498	0.0598	0.205	–	0.231	0.135	1.26	0.586	1.12	0.652	0.574	0.534	0.304	0.76
Calu-6	0.659	0.843	0.79	0.546	–	–	–	–	–	–	–	–	–	–	–	–	–	0.938
NCI-H2342	–	–	–	–	0.746	0.629	0.496	0.564	0.5	0.456	0.759	0.767	0.853	0.801	0.682	0.676	0.695	–
EBC-1	0.235	0.218	0.187	0.196	–	–	–	–	–	–	–	–	–	–	–	–	–	0.187
NCI-H1299	0.933	0.994	0.945	0.957	–	–	–	–	–	–	–	–	–	–	–	–	–	0.995
NCI-H522	–	–	–	–	0.604	0.603	0.552	0.627	0.597	0.543	1.01	0.862	0.99	0.77	0.705	0.619	0.699	–
IA-LM	0.642	0.796	0.789	0.522	–	–	–	–	–	–	0.985	0.803	1.16	0.892	–	–	–	0.634
NCI-H1793	–	–	–	–	0.535	0.516	0.36	0.257	0.313	0.309	0.869	–	0.996	0.566	0.472	0.697	0.393	–
NCI-H2228	0.44	0.641	0.404	0.617	–	–	0.208	0.349	0.202	0.253	0.584	0.795	0.993	0.581	–	–	–	0.492
CAL-12T	0.663	0.663	0.48	0.505	–	–	0.267	0.332	0.324	0.373	0.945	0.607	0.915	0.623	–	–	–	0.743
